Results as given in PubChem BioAssay AID179 (DTP/NCI, 2004).
“And” between values parts separate entries of the source, which are not always exact repeats. Equal values may be shown once. The source made the active and inactive calls.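 The calls were made as follows: active = compounds giving half or more protection of infected cells from virus-caused growth loss, again on retest; inactive = the rest.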 Where a SMILES comes first, the peptide text is derived from it. Bridges are numbered along the chain shown (N, C = ends).

Tested on: CEM cells HIV-1 protection, formazan growth assay
Assay: NCI AIDS Antiviral Assay
Conditions: for IC50: measured here: growth of uninfected CEM cells
Outline: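 Protection of CEM cells against HIV-1 was scored from cell growth (soluble formazan) across five concentrations, with parallel uninfected cells. Lack of protection may reflect toxicity.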

Row | Structure (SMILES) | EC50 | IC50 | outcome
1 | O=C1c2cc([N+](=O)[O-])ccc2-c2ccc3c4ccc5c6c(ccc(c7ccc1c2c73)c64)C(=O)c1cc([N+](=O)[O-])ccc1-5 | > 100 µM | > 100 µM | 
2 | Nc1c(S(=O)(=O)O)cc(S(=O)(=O)O)c2ccc(N=Nc3ccc(CCc4ccc(N=Nc5ccc6c(S(=O)(=O)O)cc(S(=O)(=O)O)c(N)c6c5O)cc4S(=O)(=O)O)c(S(=O)(=O)O)c3)c(O)c12 | 8.13 µM | 138 µM | 
3 | Nc1ccc(S(=O)(=O)Nc2cnc3c(Cl)cccc3n2)cc1 | > 537 µM | 6.46 µM | 
4 | O=[N+]([O-])c1cc(SSc2ccc(Cl)c([N+](=O)[O-])c2)ccc1Cl | > 60.3 µM | 13.2 µM | 
5 | CN1C(=O)C(C)(O)Sc2ccccc21 (configuration not stated) | > 1200 µM | 501 µM | 
6 | O=C(CC1(O)C(=O)Nc2c(Cl)cc(Cl)cc21)c1ccc(Cl)cc1 (configuration not stated) |  |  | inactive
7 | Cc1ccc(N2C(=O)N(c3ccc(C)cc3)C3(SC=NN3C)C2=O)cc1 (configuration not stated) |  |  | inactive
8 | C=CC1CCC[N+]1(CC(=O)OCC)Cc1ccccc1 (configuration not stated) | > 200 µM | > 200 µM | 
9 | O=S(=O)(O)NC1CCCCC1 | > 200 µM | > 200 µM | 
10 | Cc1cc(NS(=O)(=O)c2ccc(Nc3c4ccccc4nc4c(C(=O)NCCN(C)C)cccc34)cc2)no1 |  |  | inactive
11 | C[n+]1c(-c2ccc(/C=N\Nc3ccnc(N/N=C/c4ccc(-c5cn6ccsc6[n+]5C)cc4)n3)cc2)cn2ccsc21 | > 41.7 µM | 28.8 µM | 
12 | CCc1cn(C2CC(CO)C(CO)S2)c(=O)[nH]c1=O (configuration not stated) | > 200 µM | > 200 µM | 
13 | COc1cc(OC)c(OC)cc1/C=N/NC(=O)N/N=C/c1cc(OC)c(OC)cc1OC |  |  | inactive
14 | NCCCNc1ccc2c(c1)[n+]([O-])c1ccccc1[n+]2[O-] | > 437 µM | 10.2 µM | 
15 | CCOC(=O)c1ccc(C(O)CC(=O)OC(C)(C)C)[nH]1 (configuration not stated) | > 200 µM | 38 µM | 
16 | O=C1OC(c2ccc(Cl)c3ccccc23)c2ccccc21 (configuration not stated) | > 17.8 µM | > 17.8 µM | 
17 | O=C(c1ccc(S(=O)(=O)c2ccccc2)cc1)c1ccc(S(=O)(=O)c2ccccc2)cc1 | > 200 µM | > 200 µM | 
18 | CC1=CC(C)S(=O)(=O)C1 (configuration not stated) | > 200 µM | > 200 µM | 
19 | C[C@H]1CC[C@H]([C@@H](C)[C@H]2[C@@H](O)C[C@H]3[C@@H]4CC[C@H]5C[C@@H](O)CC[C@]5(C)[C@H]4CC[C@]23C)NC1 | > 200 µM | 12.6 µM | 
20 | CCOC(=O)Nc1cc(Nc2ccc(Cl)cc2)c2nc(-c3ccc(Cl)cc3)c(-c3ccc(Cl)cc3)nc2n1 | > 37.2 µM | > 37.2 µM | 
21 | NC12CCC(N)(c3ccccc31)c1ccccc12 | > 200 µM | > 200 µM | 
22 | CC(=O)OCC1(C)ON=C2CCCCC21 (configuration not stated) | > 1170 µM | > 1170 µM | 

Row | Structure (SMILES) | EC50 | IC50 | outcome
23 | COc1ccc2c(n1)Sc1c(Cl)nc(N)nc1N2 | > 158 µM | > 158 µM | 
24 | COc1ccc2[nH]c3c(c2c1)CCc1ccccc1-3 |  |  | inactive
25 | CCOC(=O)CNC(=O)c1[nH]cnc1/N=N/N(C)C |  | 933 µM | inactive
26 | O=C1CCCC1CC(CN1CCOCC1)Sc1nnnn1-c1ccccc1 (configuration not stated) | > 200 µM | > 200 µM | 
27 | O=C(NCCCCNCCCNC(=O)OCc1ccccc1)OCc1ccccc1 | > 200 µM | 33.1 µM | 
28 | CCC(C)C1NC(=O)C(CC(C)C)NC(=O)C(C(C)C)NC(=O)C2CSSCC(NC1=O)C(=O)N2 (configuration not stated) (cyclo(CCVLI); disulfide 1-2; configuration not given here) | > 2 µM | 0.339 µM | 
29 | CN(C)C=NCc1ccc2c(c1)OCO2 | 51.3 µM | 479 µM | 
30 | CCC(CO)COC(=O)/C=C/C(=O)OCC(CC)CO (configuration not stated) |  |  | inactive
31 | Oc1ccc(C2CC(O)c3ccccc3O2)cc1 (configuration not stated) |  |  | inactive
32 | O=C(CO[N+](=O)[O-])OC/C=C/c1ccccc1 |  |  | inactive
33 | CCOC(=O)/C(=C\c1ccc(N(C)C)cc1)P(=O)(OCC)OCC | > 513 µM | 55 µM | 
34 | CC(=O)OC1CCn2nnc(COC(=O)NC(C)C)c21 (configuration not stated) |  |  | inactive
35 | CC1(C)N=C(/C(Cl)=[N+](/[O-])C(=O)c2ccc(Cl)cc2)C(C)(C)N1O | > 100 µM | 8.91 µM | 
36 | CCOC(=O)c1ccc(C(=O)/C(C#N)=C2\CCCN2)[nH]1 | > 200 µM | 89.1 µM | 
37 | CC(=O)OC12c3ccccc3-c3ccccc3C1C1C(=O)N(C)C(=O)C12Cl (configuration not stated) | > 67.6 µM | > 67.6 µM | 
38 | O=C1OCC(Cc2ccc3c(c2)OCO3)[C@H]1Cc1cccc(O)c1 (some centres not stated) | > 200 µM | 79.4 µM | 
39 | O=C(CCC(=O)C1Cc2ccccc2C1=O)Nc1cccc(C(F)(F)F)c1 (configuration not stated) | > 661 µM | > 661 µM | 
40 | N=C(N)c1ccc(N=Nc2ccc(N)cc2N)cc1 | > 200 µM | 51.3 µM | 
41 | CC1=CC(C)(C)NC(=S)N1c1ccccc1O |  |  | inactive
42 | O=C(C=P(c1ccccc1)(c1ccccc1)c1ccccc1)CC(=S)CC(=O)C=P(c1ccccc1)(c1ccccc1)c1ccccc1 |  |  | inactive
43 | NC(=O)c1ccc(NN=O)nc1 | > 200 µM | > 200 µM | 
44 | CN(C)c1cccc2c(S(=O)(=O)NCCCNCCN)cccc12 | > 200 µM | 66.1 µM | 

Row | Structure (SMILES) | EC50 | IC50 | outcome
45 | OCC1CCCCCCCCCCC12SCCCS2 (configuration not stated) | > 200 µM | 120 µM | 
46 | O=C1NC(=O)C(Cc2cccc(Cl)c2)C(=O)N1 | > 200 µM | > 200 µM | 
47 | O=C1c2ccccc2Sc2ccccc2N1CCCCCCN1CCN(c2ccc(F)cc2)CC1 | > 200 µM | 10.5 µM | 
48 | COc1cc2c(cc1O)C1(Cc3ccc4c(c3C1=O)OCO4)N(C)CC2 (configuration not stated) | > 200 µM | > 200 µM | 
49 | CC(=O)c1c(O)c2ccc(Cl)cc2[nH]c1=O | > 200 µM | 33.9 µM | 
50 | Cc1cc(S(=O)(=O)Nc2n[nH]c(Nc3ccccc3)n2)c(SSc2cc(Cl)c(C)cc2S(=O)(=O)Nc2n[nH]c(Nc3ccccc3)n2)cc1Cl | 83.2 µM | 95.5 µM | 
51 | N#C/C(=C/c1ccc2c(c1)OCO2)C(=O)c1ccccc1 | > 36.3 µM | > 36.3 µM | 
52 | Cc1cnnc2c3ccccc3nn12 | > 123 µM | > 123 µM | 
53 | CCCCCCCCCCCCCCCC(=O)NCC(COP(=O)([O-])OCC[N+](C)(C)C)OCC (configuration not stated) |  |  | inactive
54 | CC(C)c1cc(C(C)C)c(B(c2ccccc2)c2ccccc2)c(C(C)C)c1B(c1ccccc1)c1ccccc1 | > 100 µM | > 100 µM | 
55 | COc1ccc2nc3cc(Cl)ccc3c(NCCCN3CCN(CCCNc4ccc5nnn6c7ccccc7c(=O)c4c56)CC3)c2c1 | 0.00251 µM | 0.00794 µM | 
56 | C=C(O)c1ccccc1C#Cc1ccccc1C(=O)OC | > 200 µM | > 100 µM | 
57 | [N-]=[N+]=Nc1ccccc1C(=O)N1C(=O)c2ccccc2C(=O)N(C(=O)c2ccccc2N=[N+]=[N-])c2ccccc21 | > 200 µM | 72.4 µM | 
58 | Cc1cc(NC(=O)C(=O)Cc2cnc3ccccc3n2)c(S(=O)(=O)O)cc1Cl | > 589 µM | > 589 µM | 
59 | NC(=O)C1Cc2cc3c(cc21)OCO3 (configuration not stated) | > 200 µM | > 200 µM | 
60 | CC(C)(C)[Si](C)(C)OCC1OC(n2ccc(=O)[nH]c2=O)C(O[Si](C)(C)C(C)(C)C)C1C/C(N)=N/O (configuration not stated) | > 200 µM | 6.61 µM and 30.9 µM | 
61 | CC(=O)N1c2ccccc2C2=NN(C)C(=N)SC21 (configuration not stated) |  |  | inactive
62 | CC(C)(C)c1cc(C(P(=O)(O)O)P(=O)(O)O)cc(C(C)(C)C)c1O | > 525 µM | 331 µM | 
63 | Cc1cccnc1NC(=O)NCCCl | > 200 µM | > 200 µM | 
64 | CCOC(=O)c1ccc(NC(=O)Nc2cc(C)ccn2)cc1 | > 200 µM | > 200 µM | 
65 | COc1cc2c(cc1OC)C(C(CO)CO)N(CC(O)CCl)CC2 (configuration not stated) | > 692 µM | > 692 µM | 
66 | O=C/C(=C(/Cl)c1ccc(O)cc1)c1ccccc1 | > 115 µM | 49 µM | 

Row | Structure (SMILES) | EC50 | IC50 | outcome
67 | CCN(CC)C1Oc2cc3c(cc2C(c2cc(OC)c(O)c(OC)c2)C1C)OCO3 (configuration not stated) | > 200 µM | 1.29 µM | 
68 | CN1CCCC(=O)C1CC[C@H]1C(=O)CCCN1C (some centres not stated) | > 269 µM | > 269 µM | 
69 | Oc1nc2nc[nH]n2c1N=Nc1ccccc1 | > 200 µM | > 200 µM | 
70 | O=CC(O)C(O)C(O)C1CNC(=S)O1 (configuration not stated) | > 200 µM | > 200 µM | 
71 | CCOC(=O)Cc1csc(NC(NC(=O)OCC)(C(=O)OCC)C(F)(F)F)n1 (configuration not stated) | > 200 µM | > 200 µM | 
72 | COC(=O)/C=C(/C(=O)OC)c1c(C)c(C)c2c(C)cc(C)cc(C)c1-2 | > 200 µM | 10 µM | 
73 | COC(=O)C(C(=O)C(=O)Nc1ccc(C)cc1C)c1csc(-n2nc(-c3ccccc3)cc2-c2ccccc2)n1 (configuration not stated) | > 158 µM | 81.3 µM | 
74 | NC(c1ccccc1)P(=O)(OCc1ccc([N+](=O)[O-])cc1)OCc1ccc([N+](=O)[O-])cc1 (configuration not stated) | > 87.1 µM | 53.7 µM | 
75 | CC(=O)N1C(Nc2nccs2)CCN1c1ccccc1 (configuration not stated) | > 200 µM | 26.9 µM | 
76 | COC(=O)/C(=N\Nc1nnc(C)n1N)C(C#N)c1ccc(Cl)cc1 (configuration not stated) | > 724 µM | 372 µM | 
77 | S=C(Nc1ccccc1)Nc1[nH]c(=S)sc1-c1nc2ccccc2[nH]1 | > 1.86 µM | > 1.86 µM | 
78 | Cc1ccc(C)c(N2C(=O)C(=O)C(c3nc4ccccc4s3)/C(=N/NC(=O)NN)C2=O)c1 (configuration not stated) |  |  | inactive
79 | COc1ccc(CN2CCC/C=C/CC(Cl)(Cl)C2=O)cc1 | > 110 µM | 57.5 µM | 
80 | COc1cc(C(=O)/C=C/c2ccc(OCC#N)cc2)cc(OC)c1OC | > 200 µM | 29.5 µM | 
81 | CCOC(=O)CP(=S)(S)c1ccccc1 (configuration not stated) | > 5500 µM | > 5500 µM | 
82 | O=C1CCC(c2ccccc2)=NN1c1nc2ccccc2s1 |  |  | inactive
83 | COc1cc(CCCOC(=O)/C=C/c2ccc(O)c(O)c2)cc(O)c1O | > 200 µM | > 200 µM | 
84 | COc1ccccc1NC(=O)C1=C(C)NC(C)=C(C(=O)Nc2ccccc2OC)C1c1cccc2c1OCO2 |  |  | inactive
85 | CC1=CC(C)=Nc2ccc(C)cc2N1 | > 200 µM | 195 µM | 
86 | CCN(CC)c1c(C)nnc2c(C)c(-c3ccccc3)nn12 | > 3.55 µM | > 3.55 µM | 
87 | CCCCCCN(CCCCCC)/N=C/c1c2c(O)c3c(O)c(C)c4c(c3c1O)C(=O)C(C)(O/C=C/C(OC)C(C)C(OC(C)=O)C(C)C(O)C(C)C(O)C(C)/C=C/C=C(C)C(=O)N2)O4 (configuration not stated) |  |  | inactive
